According to article PMC7470102, “Synthesis, anticancer evaluation and molecular docking studies of new benzimidazole- 1,3,4-oxadiazole derivatives as human topoisomerase types I poison” (Journal of Enzyme Inhibition and Medicinal Chemistry, 2020):

Assays:
[1] = test system: A549 (lung carcinoma cell line); assay: MTT cytotoxicity assay, A549; type: cell-based; details: Homo sapiens, A549, MTT assay, read-out: IC50 against A549
Description: (§1) The anticancer activity of compounds 5a–5o were screened according to the MTT assays. The MTT assays were performed as previously described[32]^,[33]. Anticancer activity of final compounds was assessed against five different cancer cell lines A549 (lung carcinoma cell line), HeLa (cervical cell line), MCF-7 (human breast adenocarcinoma cell line), HepG2 (human liver carcinoma cell line) and C6 (rat glioma cell line) cell lines as well as NIH3T3 (mouse embryo fibroblast cell line). Doxorubicin and Hoechst 33342 were used as the reference drugs in the MTT assays.
(§2) The benzimidazole-1,3,4-oxadiazole derivatives (5a-5o) were tested their cytotoxic effects in vitro using five cancer cell line A549 (lung carcinoma cell line), HeLa (cervical cell line), MCF-7 (human breast adenocarcinoma cell line), HepG2 (human liver carcinoma cell line) and C6 (rat glioma cell line) cell lines as well as NIH3T3 (mouse embryo fibroblast cell line). Doxorubicin and Hoechst 33342 were used for this study as a reference drugs.

[2] = test system: MCF-7 (human breast adenocarcinoma cell line); assay: MTT cytotoxicity assay, MCF-7; type: cell-based; details: Homo sapiens, MCF7, MCF-7 cell line, read-out: IC50 against MCF-7
Description: as §1, §2

[3] = test system: C6 (rat glioma cell line); assay: MTT cytotoxicity assay, C6; type: cell-based; details: Rattus norvegicus, read-out: IC50 against C6
Description: as §1, §2

[4] = test system: HepG2 (human liver carcinoma cell line); assay: MTT cytotoxicity assay, HepG2; type: cell-based; details: Homo sapiens, read-out: IC50 against HepG2
Description: as §1, §2

[5] = test system: HeLa (cervical cell line); assay: MTT cytotoxicity assay, HeLa; type: cell-based; details: Homo sapiens, read-out: IC50 against HeLa
Description: as §1, §2

[6] = test system: NIH3T3 (mouse embryo fibroblast cell line); assay: MTT cytotoxicity assay, NIH3T3 healthy cells; type: cell-based; details: Mus musculus, read-out: IC50 against NIH3T3
Description: The anticancer activity of compounds 5a–5o were screened according to the MTT assays. The MTT assays were performed as previously described[32]^,[33]. Anticancer activity of final compounds was assessed against five different cancer cell lines A549 (lung carcinoma cell line), HeLa (cervical cell line), MCF-7 (human breast adenocarcinoma cell line), HepG2 (human liver carcinoma cell line) and C6 (rat glioma cell line) cell lines as well as NIH3T3 (mouse embryo fibroblast cell line). Doxorubicin and Hoechst 33342 were used as the reference drugs in the MTT assays. It is crucial that an anticancer agent affects the cancer cell line but having minimal or no side-effect on healthy cells. For this purpose, the cytotoxic effects of the active compounds on the NIH3T3 cell line were investigated (Table 2).

[7] = test system: MCF-7 cell line; assay: Flow cytometric analysis (Annexin V/PI), MCF-7; type: cell-based, human; details: MCF-7 cells
Description: Death pathway of the carcinogenic cell lines was detected by Annexin V-FITC Apoptosis Detection Kit (BD, Pharmingen) as reported previously described. […] FCS Express software was used to display the percent of normal and apoptotic cells at different stages. […] The experiments were carried out in triplicates.
Annexin V/PI staining on tested cancer cells treated with the active compounds was performed to investigate induction of apoptosis. […] According to the MTT assay, compound 5n for A549 cell line; compounds 5a, 5d, 5e, 5o for MCF-7 cell line; compound 5k for C6 cell line; compound 5a for HepG2 cell line; compounds 5b, 5l and 5n for HeLa cell line were selected for the flow cytometric analysis. Furthermore, flow cytometry studies were performed for reference drug doxorubicin. Flow cytometric analysis diagrams of tested compounds and doxorubicin at IC50/2, IC50, and 2xIC50 concentrations on cancer cells were presented in Figures 7–11.

[8] = molecular target: T1, Topoisomerase I (Homo sapiens, UniProt P11387); assay: DNA topoisomerase I assay (relaxation of supercoiled plasmid DNA, agarose gel); type: biochemical; details: agarose gel electrophoresis, camptothecin positive control, Figure 12
T1 construct: purchased TopoGen TG1018-2
T1 sequence (P11387 1-765): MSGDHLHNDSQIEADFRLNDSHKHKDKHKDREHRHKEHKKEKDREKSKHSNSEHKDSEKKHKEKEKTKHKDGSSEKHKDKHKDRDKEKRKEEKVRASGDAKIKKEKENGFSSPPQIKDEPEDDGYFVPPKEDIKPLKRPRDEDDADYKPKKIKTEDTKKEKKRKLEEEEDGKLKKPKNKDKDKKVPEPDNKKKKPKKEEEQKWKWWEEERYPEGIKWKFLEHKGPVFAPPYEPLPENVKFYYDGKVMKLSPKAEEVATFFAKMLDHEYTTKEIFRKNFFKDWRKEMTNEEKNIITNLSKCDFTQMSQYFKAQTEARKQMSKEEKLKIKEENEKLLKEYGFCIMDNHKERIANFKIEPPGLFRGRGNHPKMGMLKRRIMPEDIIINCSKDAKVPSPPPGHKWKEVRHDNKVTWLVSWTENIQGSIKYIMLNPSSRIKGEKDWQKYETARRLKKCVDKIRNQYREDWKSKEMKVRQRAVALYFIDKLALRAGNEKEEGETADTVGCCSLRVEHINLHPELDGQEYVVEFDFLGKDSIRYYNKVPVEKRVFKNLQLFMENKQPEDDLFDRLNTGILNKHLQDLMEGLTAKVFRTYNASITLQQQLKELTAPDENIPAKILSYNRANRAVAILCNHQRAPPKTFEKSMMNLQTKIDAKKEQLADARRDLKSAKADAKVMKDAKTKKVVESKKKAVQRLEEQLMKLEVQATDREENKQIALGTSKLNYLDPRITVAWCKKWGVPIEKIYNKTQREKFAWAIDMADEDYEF
Description: The topoisomerase I inhibition activities of final compounds were measured as relaxation of supercoiled plasmid DNA using agarose gel electrophoresis and camptothecin was used as a positive control. The assay was carried out in a final volume of 20 µl reaction volume containing 2 µl of 10xTGS Buffer, 6 µl water, 2 µl supercoiled plasmid DNA, 2 µl test compound, 2 µl of Top1, 2 ul 10% SDS, 2 µl proteinase K, 2 µl DNA loading dye. After incubation of reaction mixtures at 37 °C for 30 min, electrophoresis was done on a 1% agarose gel at a potential 50 V for 75 min using 1xTAE buffer.
To determine whether the DNA intercalation properties of compounds 5a, 5b, 5d, 5e, 5k, 5l, 5n and 5o might result in Topo I inhibition, agarose gel electrophores is assay was performed to evaluate the Topo I inhibitory activity of them via agarose-gel electrophoresis and CPT was used as the positive control. The TopoGEN Topoisomerase I Drug Screening Kit were optimised and implemented to accomplish this goal.
In a previous studies, it was said that the compounds poisoning topoisomerase caused the formation of nick bands in such gel appearances, while the formation of Supercoiled bands was said to be caused by catalytic inhibitors that bound to either DNA or enzyme[40]^,[41].

Row | Compound | IC50 [1] [µM] | IC50 [2] [µM] | IC50 [3] [µM] | IC50 [4] [µM] | IC50 [5] [µM] | IC50 [6] [µM] | melting point [°C] | percentage of apoptosis (early + late apoptotic cells) [7] [%] | Topo I inhibition activity [8]
1 | O=C(CSc1nnc(-c2ccc3nc(-c4ccc(O)cc4)[nH]c3c2)o1)N1CCN(c2ccccc2)CC1 [5c, 2-((5–(2-(4-Hydroxyphenyl)-1H-benzo[d]imidazol-6-yl)-1,3,4-oxadiazol-2-yl)thio)-1–(4-(phenyl) -piperazin-1-yl) -ethane-1-on] | ≥ 100 | ≥ 100 | ≥ 100 | 21.9 ± 0.991 | 20.3 ± 1.1 | 44.56 ± 0.221 | 271.1 to 273.4 | – | –
2 | O=C(CSc1nnc(-c2ccc3nc(-c4ccc(O)cc4)[nH]c3c2)o1)N1CCN(c2ccccn2)CC1 [5d, 2-((5-(2-(4-Hydroxyphenyl)-1H-benzo[d]imidazol-6-yl)-1,3,4-oxadiazol-2-yl)thio)-1-(4-(pyridin-2-yl)-piperazin-1-yl)-ethane-1-on] | – | 9.15 ± 0.391 | 38.9 ± 1.92 | ≥ 100 | ≥ 100 | 720.6 ± 5.03 | – | 22.3 | potent topo I inhibition activity
3 | COc1ccc(-c2nc3ccc(-c4nnc(SCC(=O)N5CCN(C)CC5)o4)cc3[nH]2)cc1 [5f, 2-((5-(2-(4-Methoxyphenyl)-1H-benzo[d]imidazol-6-yl)-1,3,4-oxadiazol-2-yl)thio)-1–(4-methyl-piperazin-1-yl)-ethane-1-on] | ≥ 100 | ≥ 100 | ≥ 100 | ≥ 100 | ≥ 100 | – | 156.6 to 158.7 | – | –
4 | CCN1CCN(C(=O)CSc2nnc(-c3ccc4nc(-c5ccc(OC)cc5)[nH]c4c3)o2)CC1 [5g, 2-((5-(2-(4-Methoxyphenyl)-1H-benzo[d]imidazol-6-yl)-1,3,4-oxadiazol-2-yl)thio)-1–(4-ethyl-piperazin-1-yl)-ethane-1-on] | ≥ 100 | ≥ 100 | ≥ 100 | ≥ 100 | ≥ 100 | – | 180.4 to 181.9 | – | –
5 | COc1ccc(-c2nc3ccc(-c4nnc(SCC(=O)N5CCN(c6ccccc6)CC5)o4)cc3[nH]2)cc1 [5h, 2-((5-(2-(4-Methoxyphenyl)-1H-benzo[d]imidazol-6-yl)-1,3,4-oxadiazol-2-yl)thio)-1–(4-(phenyl)-piperazin-1-yl)-ethane-1-on] | ≥ 100 | ≥ 100 | ≥ 100 | ≥ 100 | ≥ 100 | – | 166.7 to 169.2 | – | –
6 | COc1ccc(-c2nc3ccc(-c4nnc(SCC(=O)N5CCN(c6ncccn6)CC5)o4)cc3[nH]2)cc1 [5j, 2-((5-(2-(4-Methoxyphenyl)-1H-benzo[d]imidazol-6-yl)-1,3,4-oxadiazol-2-yl)thio)-1–(4-(pyrimidin-2-yl)-piperazin-1-yl)-ethane-1-on] | ≥ 100 | ≥ 100 | ≥ 100 | ≥ 100 | ≥ 100 | – | 118.7 to 120.3 | – | –
7 | CCOc1ccc(-c2nc3ccc(-c4nnc(SCC(=O)N5CCN(c6ccccc6)CC5)o4)cc3[nH]2)cc1 [5m, 2-((5-(2-(4-Ethoxyphenyl)-1H-benzo [d]imidazol-6-yl)-1,3,4-oxadiazol-2-yl)thio)-1–(4-(phenyl)-piperazin-1-yl)-ethane-1-on] | ≥ 100 | ≥ 100 | 32.2 ± 1.55 | ≥ 100 | ≥ 100 | 52.3 ± 2.51 | 262.5 to 263.9 | – | –
8 | CCOc1ccc(-c2nc3ccc(-c4nnc(SCC(=O)N5CCN(c6ncccn6)CC5)o4)cc3[nH]2)cc1 [5o, 2-((5-(2-(4-Ethoxyphenyl)-1H-benzo[d]imidazol-6-yl)-1,3,4-oxadiazol-2-yl)thio)-1–(4-(pyrimidine-2-yl)-piperazin-1-yl)-ethane-1-on] | – | 6.44 ± 0.287 | 25 ± 1.24 | 59.4 ± 2.59 | ≥ 100 | 44.1 ± 2.1 | – | 8.7 | potent topo I inhibition activity
9 | COc1ccc(-c2nc3ccc(-c4nnc(SCC(=O)N5CCN(c6ccccn6)CC5)o4)cc3[nH]2)cc1 [5ı, 2-((5-(2-(4-Methoxyphenyl)-1H-benzo[d]imidazol-6-yl)-1,3,4-oxadiazol-2-yl)thio)-1–(4-(pyridin-2-yl)-piperazin-1-yl)-ethane-1-on] | ≥ 100 | ≥ 100 | ≥ 100 | ≥ 100 | ≥ 100 | – | 168.3 to 170.1 | – | –
10 | CCOc1ccc(-c2nc3ccc(-c4nc5cc(N6CCN(C)CC6)ccc5[nH]4)cc3[nH]2)cc1 [Hoechst 33342, reference compound] | – | 2.4 ± 0.118 | – | 27.8 ± 1.19 | 0.306 ± 0.015 | 7.39 ± 0.269 | – | – | –
